Data as given in patent publication US20050026984A1, “Substituted thieno [2,3-c] pyrazoles and their use as medicinal products” (Aventis Pharma S.A., priority 2003, published 2005).

melting point: 142 °C
SMILES: O=C(O)c1cc2c(-c3ccccc3)n[nH]c2s1 [Example 1, 3-phenyl-1H-thieno[2,3-c]pyrazole-5-carboxylic acid]
